Laboratory results from the NIST ThermoML archive (doi:10.1021/je050175u).
“And” between values parts separate entries of the source, which are not always exact repeats. Equal entries are not always repeated. Numbers after ± are expanded uncertainties.

Assay: excess molar enthalpy (molar enthalpy of mixing); xn = mol fraction of the nth substance listed
Details: Liquid, Flow calorimetry

COC(C)=O [methyl ethanoate] + CCCCCO
excess molar enthalpy [kcal/mol]
Details | 298.15 K | 308.15 K
5000 kPa, x1 = 0.049 | 0.0821 ± 0.00182 | –
5000 kPa, x1 = 0.1 | 0.157 ± 0.00227 | –
5000 kPa, x1 = 0.15 | 0.22 ± 0.00263 | –
5000 kPa, x1 = 0.2 | 0.273 ± 0.00311 | –
5000 kPa, x1 = 0.249 | 0.314 ± 0.00359 | –
5000 kPa, x1 = 0.299 | 0.349 ± 0.00382 | –
5000 kPa, x1 = 0.349 | 0.375 ± 0.00406 | –
5000 kPa, x1 = 0.401 | 0.394 ± 0.0043 | –
5000 kPa, x1 = 0.451 | 0.404 ± 0.0043 | –
5000 kPa, x1 = 0.5 | 0.407 ± 0.0043 | –
5000 kPa, x1 = 0.55 | 0.403 ± 0.0043 | –
5000 kPa, x1 = 0.599 | 0.391 ± 0.0043 | –
5000 kPa, x1 = 0.65 | 0.371 ± 0.00406 | –
5000 kPa, x1 = 0.749 | 0.31 ± 0.00335 | –
5000 kPa, x1 = 0.801 | 0.264 ± 0.00287 | –
5000 kPa, x1 = 0.85 | 0.213 ± 0.00237 | –
5000 kPa, x1 = 0.901 | 0.15 ± 0.00174 | –
5000 kPa, x1 = 0.95 | 0.08 ± 0.00103 | –
10000 kPa, x1 = 0.049 | 0.0827 ± 0.00184 | –
10000 kPa, x1 = 0.051 | – | 0.0858 ± 0.00194
10000 kPa, x1 = 0.099 | 0.158 ± 0.00227 | 0.162 ± 0.00232
10000 kPa, x1 = 0.15 | 0.221 ± 0.00263 | 0.223 ± 0.00263
10000 kPa, x1 = 0.199 | 0.273 ± 0.00311 | 0.281 ± 0.00311
10000 kPa, x1 = 0.248 | 0.315 ± 0.00359 | –
10000 kPa, x1 = 0.251 | – | 0.325 ± 0.00359
10000 kPa, x1 = 0.299 | 0.35 ± 0.00382 | 0.361 ± 0.00382
10000 kPa, x1 = 0.348 | 0.375 ± 0.00406 | –
10000 kPa, x1 = 0.351 | – | 0.388 ± 0.00406
10000 kPa, x1 = 0.4 | 0.394 ± 0.0043 | 0.406 ± 0.0043
10000 kPa, x1 = 0.45 | 0.404 ± 0.0043 | 0.418 ± 0.0043
10000 kPa, x1 = 0.499 | 0.407 ± 0.0043 | 0.419 ± 0.0043
10000 kPa, x1 = 0.55 | 0.403 ± 0.0043 | 0.415 ± 0.0043
10000 kPa, x1 = 0.599 | 0.391 ± 0.00406 | 0.402 ± 0.0043
10000 kPa, x1 = 0.649 | 0.371 ± 0.00406 | 0.382 ± 0.00406
10000 kPa, x1 = 0.701 | – | 0.351 ± 0.00382
10000 kPa, x1 = 0.748 | 0.309 ± 0.00335 | –
10000 kPa, x1 = 0.752 | – | 0.316 ± 0.00359
10000 kPa, x1 = 0.8 | 0.263 ± 0.00311 | 0.272 ± 0.00311
10000 kPa, x1 = 0.85 | 0.21 ± 0.00263 | 0.22 ± 0.00263
10000 kPa, x1 = 0.901 | 0.146 ± 0.00217 | 0.152 ± 0.00225
10000 kPa, x1 = 0.95 | 0.0747 ± 0.00177 | 0.0782 ± 0.00184

CC(C)CO [2-methyl-1-propanol] + COC(C)=O
Details | excess molar enthalpy
298.15 K, 5000 kPa, x2 = 0.303 | 0.341 ± 0.00359 kcal/mol
298.15 K, 5000 kPa, x2 = 0.352 | 0.368 ± 0.00406 kcal/mol
298.15 K, 5000 kPa, x2 = 0.402 | 0.388 ± 0.00406 kcal/mol
298.15 K, 5000 kPa, x2 = 0.453 | 0.401 ± 0.0043 kcal/mol
298.15 K, 5000 kPa, x2 = 0.504 | 0.405 ± 0.0043 kcal/mol
298.15 K, 5000 kPa, x2 = 0.553 | 0.402 ± 0.0043 kcal/mol
298.15 K, 5000 kPa, x2 = 0.603 | 0.392 ± 0.00406 kcal/mol
298.15 K, 5000 kPa, x2 = 0.654 | 0.374 ± 0.00406 kcal/mol
298.15 K, 5000 kPa, x2 = 0.702 | 0.347 ± 0.00359 kcal/mol
298.15 K, 5000 kPa, x2 = 0.751 | 0.315 ± 0.00335 kcal/mol
298.15 K, 5000 kPa, x2 = 0.801 | 0.271 ± 0.00287 kcal/mol
298.15 K, 5000 kPa, x2 = 0.851 | 0.219 ± 0.00239 kcal/mol
298.15 K, 5000 kPa, x2 = 0.902 | 0.154 ± 0.00182 kcal/mol
298.15 K, 5000 kPa, x2 = 0.951 | 0.0827 ± 0.00112 kcal/mol
298.15 K, 10000 kPa, x2 = 0.049 | 0.0751 ± 0.00172 kcal/mol
298.15 K, 10000 kPa, x2 = 0.099 | 0.146 ± 0.00215 kcal/mol
298.15 K, 10000 kPa, x2 = 0.15 | 0.208 ± 0.00263 kcal/mol
298.15 K, 10000 kPa, x2 = 0.199 | 0.259 ± 0.00311 kcal/mol
298.15 K, 10000 kPa, x2 = 0.249 | 0.303 ± 0.00335 kcal/mol
298.15 K, 10000 kPa, x2 = 0.3 | 0.339 ± 0.00359 kcal/mol
298.15 K, 10000 kPa, x2 = 0.349 | 0.366 ± 0.00406 kcal/mol
298.15 K, 10000 kPa, x2 = 0.401 | 0.388 ± 0.00406 kcal/mol
298.15 K, 10000 kPa, x2 = 0.449 | 0.4 ± 0.0043 kcal/mol
298.15 K, 10000 kPa, x2 = 0.5 | 0.404 ± 0.0043 kcal/mol
298.15 K, 10000 kPa, x2 = 0.55 | 0.402 ± 0.0043 kcal/mol
298.15 K, 10000 kPa, x2 = 0.6 | 0.392 ± 0.0043 kcal/mol
298.15 K, 10000 kPa, x2 = 0.65 | 0.374 ± 0.00406 kcal/mol
298.15 K, 10000 kPa, x2 = 0.699 | 0.349 ± 0.00382 kcal/mol
298.15 K, 10000 kPa, x2 = 0.752 | 0.313 ± 0.00359 kcal/mol
298.15 K, 10000 kPa, x2 = 0.798 | 0.272 ± 0.00311 kcal/mol
298.15 K, 10000 kPa, x2 = 0.849 | 0.218 ± 0.00263 kcal/mol
298.15 K, 10000 kPa, x2 = 0.901 | 0.154 ± 0.00222 kcal/mol
298.15 K, 10000 kPa, x2 = 0.95 | 0.081 ± 0.00182 kcal/mol
308.15 K, 10000 kPa, x2 = 0.047 | 0.0714 ± 0.00177 kcal/mol
308.15 K, 10000 kPa, x2 = 0.098 | 0.148 ± 0.00225 kcal/mol
308.15 K, 10000 kPa, x2 = 0.146 | 0.213 ± 0.00263 kcal/mol
308.15 K, 10000 kPa, x2 = 0.193 | 0.266 ± 0.00311 kcal/mol
308.15 K, 10000 kPa, x2 = 0.243 | 0.314 ± 0.00359 kcal/mol
308.15 K, 10000 kPa, x2 = 0.291 | 0.352 ± 0.00382 kcal/mol
308.15 K, 10000 kPa, x2 = 0.343 | 0.383 ± 0.00406 kcal/mol
308.15 K, 10000 kPa, x2 = 0.39 | 0.404 ± 0.0043 kcal/mol
308.15 K, 10000 kPa, x2 = 0.492 | 0.426 kcal/mol and 0.423 kcal/mol
308.15 K, 10000 kPa, x2 = 0.541 | 0.424 ± 0.00454 kcal/mol
308.15 K, 10000 kPa, x2 = 0.591 | 0.415 ± 0.0043 kcal/mol
308.15 K, 10000 kPa, x2 = 0.641 | 0.398 ± 0.0043 kcal/mol
308.15 K, 10000 kPa, x2 = 0.692 | 0.371 ± 0.00406 kcal/mol
308.15 K, 10000 kPa, x2 = 0.744 | 0.335 ± 0.00359 kcal/mol
308.15 K, 10000 kPa, x2 = 0.794 | 0.291 ± 0.00335 kcal/mol
308.15 K, 10000 kPa, x2 = 0.896 | 0.168 ± 0.00232 kcal/mol
308.15 K, 10000 kPa, x2 = 0.947 | 0.0912 ± 0.00194 kcal/mol

COC(C)=O [methyl ethanoate] + CCCO
excess molar enthalpy [kcal/mol]
Details | 298.15 K | 333.15 K
5000 kPa, x1 = 0.051 | 0.0748 ± 0.00172 | –
5000 kPa, x1 = 0.099 | 0.143 ± 0.0021 | –
5000 kPa, x1 = 0.149 | 0.201 ± 0.00263 | –
5000 kPa, x1 = 0.199 | 0.248 ± 0.00287 | –
5000 kPa, x1 = 0.251 | 0.287 ± 0.00335 | –
5000 kPa, x1 = 0.3 | 0.316 ± 0.00359 | –
5000 kPa, x1 = 0.349 | 0.338 ± 0.00359 | –
5000 kPa, x1 = 0.4 | 0.354 ± 0.00382 | –
5000 kPa, x1 = 0.451 | 0.363 ± 0.00382 | –
5000 kPa, x1 = 0.501 | 0.364 ± 0.00382 | –
5000 kPa, x1 = 0.551 | 0.358 ± 0.00382 | –
5000 kPa, x1 = 0.6 | 0.347 ± 0.00382 | –
5000 kPa, x1 = 0.65 | 0.33 ± 0.00359 | –
5000 kPa, x1 = 0.701 | 0.305 ± 0.00335 | –
5000 kPa, x1 = 0.749 | 0.273 ± 0.00311 | –
5000 kPa, x1 = 0.8 | 0.236 ± 0.00263 | –
5000 kPa, x1 = 0.85 | 0.191 ± 0.00215 | –
5000 kPa, x1 = 0.899 | 0.136 ± 0.0016 | –
5000 kPa, x1 = 0.951 | 0.0711 ± 0.000956 | –
10000 kPa, x1 = 0.051 | 0.0813 ± 0.0017 | 0.0961 ± 0.00206
10000 kPa, x1 = 0.099 | 0.145 ± 0.0021 | 0.168 ± 0.00237
10000 kPa, x1 = 0.149 | 0.202 ± 0.00239 | –
10000 kPa, x1 = 0.15 | – | 0.232 ± 0.00287
10000 kPa, x1 = 0.199 | 0.248 ± 0.00287 | –
10000 kPa, x1 = 0.2 | – | 0.287 ± 0.00335
10000 kPa, x1 = 0.25 | 0.287 ± 0.00311 | 0.329 ± 0.00359
10000 kPa, x1 = 0.3 | 0.316 ± 0.00335 | 0.363 ± 0.00382
10000 kPa, x1 = 0.349 | 0.337 ± 0.00359 | –
10000 kPa, x1 = 0.35 | – | 0.389 ± 0.00406
10000 kPa, x1 = 0.399 | 0.353 ± 0.00382 | 0.408 ± 0.0043
10000 kPa, x1 = 0.448 | – | 0.418 ± 0.0043
10000 kPa, x1 = 0.45 | 0.361 ± 0.00382 | –
10000 kPa, x1 = 0.5 | 0.362 ± 0.00382 | 0.422 ± 0.00454
10000 kPa, x1 = 0.548 | – | 0.419 ± 0.0043
10000 kPa, x1 = 0.55 | 0.357 ± 0.00382 | –
10000 kPa, x1 = 0.599 | 0.346 ± 0.00359 | 0.405 ± 0.0043
10000 kPa, x1 = 0.649 | 0.33 ± 0.00359 | –
10000 kPa, x1 = 0.65 | – | 0.384 ± 0.00406
10000 kPa, x1 = 0.7 | 0.305 ± 0.00335 | 0.355 ± 0.00382
10000 kPa, x1 = 0.749 | 0.274 ± 0.00311 | –
10000 kPa, x1 = 0.751 | – | 0.317 ± 0.00359
10000 kPa, x1 = 0.799 | 0.237 ± 0.00263 | –
10000 kPa, x1 = 0.801 | – | 0.271 ± 0.00311
10000 kPa, x1 = 0.849 | 0.189 ± 0.00237 | –
10000 kPa, x1 = 0.85 | – | 0.215 ± 0.00263
10000 kPa, x1 = 0.899 | 0.135 ± 0.00198 | 0.15 ± 0.00225
10000 kPa, x1 = 0.949 | – | 0.0751 ± 0.00182
10000 kPa, x1 = 0.951 | 0.0683 ± 0.00158 | –
